Reference: paper PMC4335062, “Data-Driven Prediction and Design of bZIP Coiled-Coil Interactions” (PLoS Computational Biology, 2015)
Like-named read-outs stand apart in the source and are kept apart here. Blank lines part the entries; values can stand above or below the sequence they belong to. Where no end group is shown, it is not given here.

What was measured:
Experiment in all cases: Direct-binding FRET assay
[1] = molecular target: T1, FOSL1 (Homo sapiens, UniProt P15407); conditions: read-out: Kd
T1 construct: made in house
T1 sequence (P15407 105-168 limits assumed): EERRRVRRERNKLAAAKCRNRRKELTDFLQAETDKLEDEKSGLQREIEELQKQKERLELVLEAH
Method: (§1) The direct binding assay was performed manually in 384-well plates and is similar to a previously described assay. Wells were filled with 20 μL of 1 mM TCEP-HCl. A 4 μM stock of acceptor protein was made fresh in 1 mM TCEP-HCl, and 20 μL was titrated in 2-fold dilutions over the wells. […] The direct-binding FRET data were fit as previously described. Briefly, the Kd of the designed peptide homodimer was experimentally determined and used with previously determined target homodimer Kd values to determine the heterodimer Kd. The homodimer Kd values used for the human bZIPs were from; experiments done by […] et al. used the same protein constructs for the human bZIP proteins, the same buffer conditions, and the same assay. The fitting used a system of ordinary differential equations to describe the concentrations of homo and heterodimers formed by the donor (D) and acceptor (A) as a function of the heterodimer Kd. MATLAB was used to simulate the binding experiment for different Kd values, and the value that gave the best agreement between simulation and experiment was assigned. A minimum 15% change in the donor fluorescence upon titrating the acceptor peptide from 0 to 1000 nM was required for a fit to be attempted. If this minimum was not met, the interaction was classified as “NS” for no signal change. […] These interactions were marked “AS” to indicate anomalous signal. We attributed this to interactions between the peptides, the dyes and the walls of the assay plates at low concentrations. These curves could not be fit, given their unusual shapes at low concentrations of acceptor. For such curves, we removed the first five points and re-fit the data. […] One example of this is increasing concentrations of acceptor causing an increase in donor fluorescence.

[2] = molecular target: T2, ATF5 (Homo sapiens, UniProt Q9Y2D1); conditions: read-out: Kd
T2 construct: made in house
T2 sequence (Q9Y2D1 208-271 limits assumed): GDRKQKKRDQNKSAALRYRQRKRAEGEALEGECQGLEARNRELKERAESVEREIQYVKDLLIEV
Method: as §1

[3] = molecular target: T3, HLF (Homo sapiens, UniProt Q16534); conditions: read-out: Kd
T3 construct: made in house
T3 sequence (Q16534 225-288 limits assumed): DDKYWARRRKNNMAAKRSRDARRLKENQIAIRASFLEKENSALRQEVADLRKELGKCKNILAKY
Method: as §1

[4] = molecular target: T4, ATF2 (Homo sapiens, UniProt P15336); conditions: read-out: Kd
T4 construct: made in house
T4 sequence (P15336 352-415 limits assumed): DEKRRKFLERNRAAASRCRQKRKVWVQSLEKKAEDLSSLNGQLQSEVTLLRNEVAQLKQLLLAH
Method: as §1

[5] = molecular target: T5, JUNB (Homo sapiens, UniProt P17275); conditions: read-out: Kd
T5 construct: made in house
T5 sequence (P17275 268-331 limits assumed): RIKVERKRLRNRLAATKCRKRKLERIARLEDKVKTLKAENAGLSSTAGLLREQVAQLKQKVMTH
Method: as §1

[6] = molecular target: T6, NFIL3 (Homo sapiens, UniProt Q16649); conditions: read-out: Kd
T6 construct: made in house
T6 sequence (Q16649 73-136 limits assumed): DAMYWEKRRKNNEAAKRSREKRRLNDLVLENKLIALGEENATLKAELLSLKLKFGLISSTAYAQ
Method: as §1

[7] = molecular target: T7, BATF (Homo sapiens, UniProt Q16520); conditions: read-out: Kd
T7 construct: made in house
T7 sequence (Q16520 26-89 limits assumed): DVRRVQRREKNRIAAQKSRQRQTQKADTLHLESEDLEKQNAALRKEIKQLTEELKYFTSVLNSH
Method: as §1

[8] = molecular target: T8, CREBZF (Homo sapiens, UniProt Q9NS37); conditions: read-out: Kd
T8 construct: made in house
T8 sequence (Q9NS37 204-267 limits assumed): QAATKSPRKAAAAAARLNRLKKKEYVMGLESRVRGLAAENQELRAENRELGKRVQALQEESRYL
Method: as §1

[9] = molecular target: T9, BATF3 (Homo sapiens, UniProt Q9NR55); conditions: mean or single, read-out: Kd
T9 construct: made in house
T9 sequence (Q9NR55 35-98 limits assumed): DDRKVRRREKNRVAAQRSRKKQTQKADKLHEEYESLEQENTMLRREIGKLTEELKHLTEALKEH
Method: as §1

[10] = molecular target: T10, DBP (Homo sapiens, UniProt Q10586); conditions: read-out: Kd
T10 construct: made in house
T10 sequence (Q10586 255-318 limits assumed): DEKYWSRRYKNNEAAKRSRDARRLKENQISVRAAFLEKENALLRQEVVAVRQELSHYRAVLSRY
Method: as §1

[11] = 4°C, C-terminal rhodamine design, mean or single
[12] = 4°C, N-terminal rhodamine design, mean or single
[13] = 23°C, C-terminal rhodamine design, mean or single
[14] = 23°C, N-terminal rhodamine design, mean or single
[15] = 37°C, C-terminal rhodamine design, mean or single
[16] = 37°C, N-terminal rhodamine design, repeat 1
[17] = 37°C, N-terminal rhodamine design, repeat 2
[18] = 37°C, N-terminal rhodamine design, repeat 3
[19] = 37°C, N-terminal rhodamine design, mean or single
[20] = 4°C, C-terminal rhodamine design
[21] = 4°C, N-terminal rhodamine design
[22] = 23°C, C-terminal rhodamine design
[23] = 23°C, N-terminal rhodamine design
[24] = 37°C, C-terminal rhodamine design
[25] = 37°C, N-terminal rhodamine design
[26] = 4°C, C-terminal fluorescein design as donor, TAMRA target titrated
[27] = 23°C, C-terminal fluorescein design as donor, TAMRA target titrated
[28] = 37°C, C-terminal fluorescein design as donor, TAMRA target titrated
[29] = 23°C, C-terminal rhodamine design, repeat 1
[30] = 23°C, C-terminal rhodamine design, repeat 2
[31] = 37°C, C-terminal rhodamine design, repeat 1
[32] = 37°C, C-terminal rhodamine design, repeat 2
[33] = 37°C, C-terminal rhodamine design, repeat 3

- Kd [1, 11]: 84.1 nM
- Kd [1, 12]: 271 nM
- Kd [1, 13]: 695 nM
- Kd [1, 14]: > 5000 nM
- Kd [1, 15]: > 1000 nM
- Kd [2, 11]: 1.1 nM
- Kd ([2]; 4°C, N-terminal rhodamine design, repeat 3): 200 to 1000 nM
- Kd [2, 15]: 1680 nM
- Kd [2, 16]: > 1000 nM
- Kd [2, 17]: > 1000 nM
- Kd [2, 18]: > 5000 nM
- Kd [3, 11]: > 5000 nM
- Kd [3, 12]: > 5000 nM
- Kd [3, 13]: > 5000 nM
- Kd [3, 14]: > 1000 nM
- Kd [3, 15]: > 5000 nM
- Kd [3, 19]: > 1000 nM
- Kd [4, 11]: > 5000 nM
- Kd [4, 13]: > 5000 nM
- Kd [4, 14]: > 1000 nM
- Kd [4, 15]: > 5000 nM
- Kd [4, 19]: > 1000 nM
- Kd [5, 11]: 3620 nM
- Kd [5, 12]: > 1000 nM
- Kd [5, 13]: > 1000 nM
- Kd [5, 14]: > 1000 nM
- Kd [5, 15]: > 1000 nM
- Kd [5, 19]: > 1000 nM
- Kd [6, 11]: > 1000 nM
- Kd [6, 12]: > 1000 nM
- Kd [6, 13]: > 1000 nM
- Kd [6, 14]: > 1000 nM
- Kd [6, 15]: > 1000 nM
- Kd [6, 19]: > 1000 nM
- Kd [7, 11]: > 5000 nM
- Kd [7, 12]: 136 nM
- Kd [7, 13]: > 5000 nM
- Kd [7, 14]: 382 nM
- Kd [7, 15]: > 5000 nM
- Kd [7, 19]: > 5000 nM
- Kd [8, 11]: 409 nM
- Kd [8, 12]: 375 nM
- Kd [8, 13]: > 5000 nM
- Kd [8, 14]: > 5000 nM
- Kd [8, 15]: > 1000 nM
- Kd [9, 20]: 192 nM
- Kd [9, 21]: 52.8 nM
- Kd [9, 22]: 791 nM
- Kd [9, 23]: 315 nM
- Kd [9, 24]: > 5000 nM
- Kd [9, 25]: > 5000 nM
- Kd [10, 11]: > 1000 nM
- Kd [10, 12]: > 5000 nM
- Kd [10, 13]: > 1000 nM
- Kd [10, 14]: > 1000 nM
- Kd [10, 15]: > 1000 nM
- Kd [10, 19]: > 1000 nM
Sequence: KRIAYLRQRIAELRNENHVLESRIQRMEKEKDALQQDRDHLEYEL [ATF5-d1]

- Kd [1, 26]: > 5000 nM
- Kd [1, 11]: > 1000 nM
- Kd [1, 12]: > 5000 nM
- Kd [1, 27]: > 1000 nM
- Kd [1, 13]: > 1000 nM
- Kd [1, 14]: > 1000 nM
- Kd [1, 28]: > 1000 nM
- Kd [1, 15]: > 1000 nM
- Kd [1, 19]: > 1000 nM
- Kd [2, 26]: 35.5 nM
- Kd [2, 11]: > 5000 nM
- Kd [2, 13]: > 5000 nM
- Kd [2, 29]: > 5000 nM
- Kd [2, 30]: > 5000 nM
- Kd ([2]; 23°C, C-terminal rhodamine design, repeat 3): > 5000 nM
- Kd ([2]; 23°C, N-terminal rhodamine design, repeat 1): > 1000 nM
- Kd [2, 28]: > 1000 nM
- Kd [2, 15]: > 5000 nM
- Kd [2, 31]: > 5000 nM
- Kd [2, 32]: > 5000 nM
- Kd [2, 33]: > 5000 nM
- Kd [2, 19]: > 1000 nM
- Kd [2, 16]: > 1000 nM
- Kd [2, 17]: > 1000 nM
- Kd [2, 18]: > 1000 nM
- Kd [3, 26]: > 1000 nM
- Kd [3, 11]: > 5000 nM
- Kd [3, 12]: > 1000 nM
- Kd [3, 27]: > 1000 nM
- Kd [3, 13]: > 1000 nM
- Kd [3, 14]: > 1000 nM
- Kd [3, 28]: > 1000 nM
- Kd [3, 15]: > 5000 nM
- Kd [3, 19]: > 1000 nM
- Kd [4, 26]: > 5000 nM
- Kd ([4]; 4°C, C-terminal rhodamine design, repeat 1): > 5000 nM
- Kd [4, 12]: > 1000 nM
- Kd [4, 27]: > 1000 nM
- Kd [4, 29]: > 1000 nM
- Kd [4, 14]: > 1000 nM
- Kd [4, 28]: > 5000 nM
- Kd [4, 31]: > 5000 nM
- Kd [4, 19]: > 1000 nM
- Kd [5, 26]: > 1000 nM
- Kd [5, 11]: > 1000 nM
- Kd [5, 12]: > 1000 nM
- Kd [5, 27]: > 1000 nM
- Kd [5, 13]: > 1000 nM
- Kd [5, 14]: > 1000 nM
- Kd [5, 28]: > 1000 nM
- Kd [5, 15]: > 1000 nM
- Kd [5, 19]: > 1000 nM
- Kd [6, 26]: 42.4 nM
- Kd [6, 11]: 22.8 nM
- Kd [6, 12]: > 1000 nM
- Kd [6, 27]: > 1000 nM
- Kd [6, 29]: > 5000 nM
- Kd [6, 30]: > 5000 nM
- Kd [6, 14]: > 1000 nM
- Kd [6, 28]: > 1000 nM
- Kd [6, 15]: > 5000 nM
- Kd [6, 31]: > 5000 nM
- Kd [6, 32]: > 5000 nM
- Kd [6, 33]: > 5000 nM
- Kd [6, 19]: > 1000 nM
- Kd [7, 11]: > 1000 nM
- Kd [7, 12]: > 5000 nM
- Kd [7, 27]: > 1000 nM
- Kd [7, 13]: > 1000 nM
- Kd [7, 14]: > 1000 nM
- Kd [7, 28]: > 1000 nM
- Kd [7, 15]: > 1000 nM
- Kd [7, 19]: > 1000 nM
- Kd [8, 11]: > 5000 nM
- Kd [8, 12]: < 200 nM
- Kd [8, 27]: > 1000 nM
- Kd [8, 13]: > 5000 nM
- Kd [8, 14]: > 5000 nM
- Kd [8, 28]: > 1000 nM
- Kd [8, 15]: > 1000 nM
- Kd [8, 19]: > 1000 nM
- Kd [9, 20]: > 1000 nM
- Kd [9, 21]: > 1000 nM
- Kd [9, 22]: > 1000 nM
- Kd [9, 23]: > 1000 nM
- Kd [9, 24]: > 1000 nM
- Kd [9, 25]: > 1000 nM
- Kd [10, 11]: > 5000 nM
- Kd [10, 12]: > 1000 nM
- Kd [10, 27]: > 1000 nM
- Kd [10, 13]: > 1000 nM
- Kd [10, 14]: > 1000 nM
- Kd [10, 28]: > 1000 nM
- Kd [10, 15]: > 1000 nM
- Kd [10, 19]: > 1000 nM
Sequence: NQIKTLRTRLSKLRKDNLQLEKDIANLERKAKDLRAEKEQLEYEL [ATF4-d1]
